{"source": "patent US8673934B2", "about": "“Anti-infective agents and/or immunomodulators used for preventive therapy following an acute cerebrovascular accident” (priority 2002, dated 2014)", "key": {"[1]": {"system": "mouse model of cerebral ischemia (MCAO); stroke-induced immunodepression and bacterial infection", "assay": "Immunomodulating therapy in mouse model of cerebral ischemia (MCAO): lymphopenia, lymphocyte/monocyte function, infections, survival", "type": "in vivo", "experimental": "(§1) According to the mouse model of cerebral ischemia, mice were operated according to the MCAO. In this operation, the A. cerebri media is occluded for about 60 minutes, leading to a cerebral infarction typical for this model. As a control, we use the so-called Sham-operation, in which the animals are also MCAO-operated, but in which the A. cerebri media is only occluded for about 1 minute. For the rest, the two paradigms are identical. Thus, the perioperative stress can be doubtlessly excluded as a systemic mistake for the following results.\nThis severe lymphopenia persists at least for 14 days and also affects the spleen and the thymus (FIG. 6:d-g), which constitute essential organs of immunological maturation. Besides the mere numeric decrease, there also occurs a functional impairment with a disturbance of the cytokine secretion capacity after stimulation (FIG. 6: h and j). Besides the disturbance of monocyte function, which manifests as a disturbance of TNF-α secretion for 2 days after LPS-stimulation, one can also detect a lymphocyte alteration after ConA-stimulation; this alteration persisting for 14 days after the stroke and mainly causing a Th1- to Th2-shift (alteration of the IFN-γ/IL4 ratio), which means a loss of pro-inflammatory potential. […] B- and NK-cells only slightly decrease in the blood after the OP-stress. In the spleen and in the thymus, no major stress-induced alterations are detected and the functional parameters of the monocytes and lymphocytes remain at the control level. […] In contrast to this, no infection is found in the control animals (Sham-operated).\nFurthermore, the blockade of the SNS by propranolol (30 mg/kg body weight) also prevents the disturbance of function of the remaining monocytes (TNF-α secretion) and of the lymphocytes (IFN-γ/IL-4 ratio) (FIG. 7). The SNS blockade can also prevent the development of infections in the lung (pneumonia) and in the blood (sepsis) (FIG. 7). The dose of propranolol (indicated as mg/kg body weight), which is required for the prevention or drastic reduction of the bacterial infections, also prevents the disturbed INF-γ secretion of the lymphocytes (FIG. 8). To this aim, the administration of propranolol has to be accomplished at a very early stage (immediately up to 12 hours) after the stroke. An application 24 hours after the stroke event has no effect (FIG. 8). An early (before the stroke) chemical sympathicolysis by 6-hydroxydopamin (6-OHDA) as well prevents the stroke-induced, disturbed INF-γ function of the lymphocytes and blocks the severe bacterial infections (FIG. 8)."}, "[2]": {"system": "mouse model of cerebral ischemia (MCAO); stroke-induced spontaneous bacterial infection (more than 95% Escherichia coli)", "experimental": "as §1, with “ischemia, a generally accepted model of ischemic stroke,” for “ischemia,”, “identical.” for “identical. Thus, the perioperative stress can be doubtlessly excluded as a systemic mistake for the following results.”"}, "[3]": {"settings": "early (before the stroke) chemical sympathicolysis, FIG. 8"}, "[4]": {"settings": "after experimental stroke in mice, FIG. 7"}}}
{"molecule": "NCCc1cc(O)c(O)cc1O", "note": "[6-hydroxydopamin (6-OHDA), 6-hydroxydopamin]", "values": [{"measurement": "severe bacterial infections", "setting": "[1]; [3]", "result": "blocks"}, {"measurement": "stroke-induced, disturbed INF-γ function of the lymphocytes", "setting": "[1]; [3]", "result": "prevents"}]}
{"molecule": "COc1c(N2C[C@@H]3CCCN[C@@H]3C2)c(F)cc2c(=O)c(C(=O)O)cn(C3CC3)c12", "note": "[moxifloxacin, 1-cyclopropyl-6-fluoro-1,4-dihydro-8-methoxy-7-[(4aS,7aS)-octahydro-6H-pyrrolo[3,4-b]-pyridin-6-yl]-4-oxoquinoline-3-carboxylic acid]", "values": [{"measurement": "neurological deficit", "setting": "[2]; early administration within the first 24 h", "result": "drastically reduced"}, {"measurement": "infections (pneumonia, sepsis)", "setting": "[2]; very early (0-12 h) and somewhat later (12-24 h after acute stroke) treatment scheme", "result": "prevented"}, {"measurement": "fever/hyperthermia", "setting": "[2]; very early (0-12 h) and somewhat later (12-24 h after acute stroke) treatment scheme, FIG. 3", "result": "significantly reduced"}, {"measurement": "neurological deficit after stroke", "setting": "[2]; very early (0-12 h) and somewhat later (12-24 h after acute stroke) treatment scheme, FIG. 5", "result": "significantly reduced"}]}
{"molecule": "CC(C)NCC(O)COc1cccc2ccccc12", "note": "(centres unmarked) [propranolol]", "values": [{"measurement": "disturbance of function of the lymphocytes (IFN-γ/IL-4 ratio)", "setting": "[1]; 30 mg/kg body weight, FIG. 7", "result": "prevents"}, {"measurement": "disturbance of function of the remaining monocytes (TNF-α secretion)", "setting": "[1]; 30 mg/kg body weight, FIG. 7", "result": "prevents"}, {"measurement": "survival after stroke", "setting": "[1]; 30 mg/kg body weight, FIG. 10", "result": "drastically improve"}, {"measurement": "infections", "setting": "[1]; 30 mg/kg body weight, FIGS. 7 and 8", "result": "prevent"}, {"measurement": "development of infections in the lung (pneumonia) and in the blood (sepsis)", "setting": "[1]; SNS blockade, FIG. 7", "result": "prevent"}, {"measurement": "decrease of T- and NK-cells", "setting": "[1]; [4]", "result": "prevent"}, {"measurement": "degree of B-cell lymphopenia", "setting": "[1]; [4]", "result": "significantly reduce"}, {"measurement": "effect on bacterial infections and INF-γ secretion of application 24 hours after the stroke event", "setting": "[1]; application 24 hours after the stroke, FIG. 8", "result": "no effect"}, {"measurement": "disturbed INF-γ secretion of the lymphocytes", "setting": "[1]; dose required for prevention of bacterial infections, administration immediately up to 12 hours after the stroke, FIG. 8", "result": "prevents"}]}
{"molecule": "IFN-γ: pro-inflammatory cytokine, interferon (protein, UniProt P01579 24-161, looked up) Interferon gamma: QDPYVKEAENLKKYFNAGHSDVADNGTLFLGILKNWKEESDRKIMQSQIVSFYFKLFKNFKDDQSIQKSVETIKEDMNVKFFNSNKKKRDDFEKLTNYSVTDLNVQRKAIHELIQVMAELSPAAKTGKRKRSQMLFRG", "values": [{"measurement": "germ number in the lung", "setting": "[1]; 2 μg, FIG. 9", "result": "reduce"}, {"measurement": "germ number in the blood", "setting": "[1]; 2 μg, even more pronounced than in the lung, FIG. 9", "result": "reduce"}]}
